Assay results: US8946243B2, “Compounds and methods for the treatment of viral infection” (The United States of America, as represented by the …, priority 2008, dated 2015)
Where two headings read alike, the source gives them in different places.

Experiments:
[1] = system: HIV-1(IIIB); assay: Anti-HIV activity in CEM cell cultures: prevention of giant cell (syncytium) formation, HIV-1(IIIB); format: cell-based; conditions: concentration preventing syncytium formation by 50%, 4-5 days
Experimental: (§1) Human T-lymphocyte MT-4 or CEM cells were obtained from the American Type Culture Collection (Manassas, Va.) and cultivated in RPMI 1640 medium supplemented with 10% fetal bovine serum 2 mM L-glutamine and 0.075 M NaHCO3.
(§2) HIV-1(IIIB) was provided by Dr. R. C. Gallo and Dr. M. Popovic (at that time at the NCI, National Institutes of Health, Bethesda). A closely related HIV-1 variant (LAI.04) was obtained from the NIH AIDS Reagent Program.
(§3) Briefly, CEM cells (4.5×10^5 cells per ml) were suspended in fresh culture medium and infected with HIV-1 at 100 CCID50 (cell culture infective dose-50) per ml of cell suspension. Then 100 μl of the infected cell suspension were transferred to microplate wells, mixed with 100 μl of the appropriate dilutions of the test compounds, and further incubated at 37° C. After 4-5 days, giant cell formation was recorded microscopically in the CEM cell cultures. […] MT4 cells (1×10^4 cells per ml) were suspended in fresh culture medium and infected with 10 uL of HIV-1LAI.04 viral stock at 260 CCID50 (cell culture infective dose-50) per ml of cell suspension. Then infected cell suspensions were transferred to microplate wells, mixed with 1 mL of the appropriate dilutions of the test compounds, and further incubated at 37° C. After 7 days, p24 production was measured in the MT4 cell cultures supernatant.

[2] = system: HIV-2(ROD); assay: Anti-HIV activity in CEM cell cultures: prevention of giant cell (syncytium) formation, HIV-2(ROD); format: cell-based; conditions: Human immunodeficiency virus 2, CCRF-CEM, read-out: EC50 HIV-2(ROD)
[3] = Cytostatic activity in CEM cell cultures; format: cell-based; conditions: human, CEM T-lymphocyte cells
Experimental: as §1

[4] = system: HIV-1 LAI.04; assay: Anti-HIV activity in MT4 cell cultures: p24 production; format: cell-based; conditions: for inhibition of HIV-1 (in words): MT-4 cell line, concentration of 5 μM
Experimental: as §1, §2
as §3, with “After 7 days, p24 production was measured in the MT4 cell cultures supernatant.” left out

[5] = system: HIV-1 X4 LAI.04; assay: HIV-1 replication in ex vivo human tonsillar tissue culture: p24gag in culture medium; format: cell-based; conditions: for EC50 / EC90: Human immunodeficiency virus 1; for EC50 / EC90 / EC75: ex vivo human tonsillar tissue, X4 LAI.04, p24gag
Experimental: Tonsillar tissues from routine surgery were obtained from the Children's National Medical Center, Washington D.C. Tissues were dissected into 2-mm^3 blocks and placed onto collagen sponge gels at the air-liquid interface. Tissue blocks were cultured in RPMI 1640 medium containing 15% heat-inactivated fetal calf serum, nonessential amino acids (1 mM), sodium pyruvate (1 mM), amphotericin B (2.5 μg/mL) and gentamicin (50 μg/mL). The culture medium was changed every 3 days and prodrugs were replenished. Blocks of human lymphoid tonsillar tissues were inoculated ex vivo with X4LAI.04 and treated with increasing concentration of each prodrug (0,1; 0.5; 1; 5 and 10 μM). HIV-1 replication was monitored by measuring p24gag accumulated in culture media over 3 day periods. For each donor, HIV-1 replication in 9 treated blocks was compared with that in 9 untreated blocks from the same donor.

[6] = molecular target: HIV-1 RT (Human immunodeficiency virus type 1 group M subtype B, UniProt P03366); assay: Inhibition of HIV-1 RT; format: biochemical
[7] = CEM cell cultures, 50% effective concentration
[8] = Human immunodeficiency virus 1, IIIB, CCRF-CEM, read-out: EC50 HIV-1(IIIB), CEM cell cultures
[9] = Human immunodeficiency virus 1, MT4
[10] = MT4 cell cultures, HIV-1 LAI.04, 50% suppression of p24 production, read-out: EC50

SMILES	CC50 [3] [µM]	EC50 [1, 8] [µM]	EC50 [2] [µM]	EC50 [4, 9] [µM]	EC50 [5] [µM]	EC90 [5] [µM]	EC75 [5] [µM]	also measured
Nc1nc(O)c2ncn(COC(CO)CO)c2n1 [GCV, Ganciclovir, reference compound]	> 250	–	–	–	–	–	–	EC50 ([1]; Human immunodeficiency virus 1, IIIB, CCRF-CEM, CEM cell cultures, read-out: EC50 HIV-1(IIIB)): > 250 µM; EC50 [2, 7]: > 250 µM
Nc1nc2c(ncn2COCCO)c(=O)[nH]1 [ACV, Acyclovir, reference compound]	> 250	–	–	–	–	–	–	EC50 [2, 7]: > 250 µM; inhibition of HIV-1 (in words) [4]: inefficient; effect on replication of HIV-1 (in words) ([4]; MT-4 cells, at low concentrations): does not affect HIV-1 replication at all
CCCOC(=O)[C@H](C)NP(=O)(OCCOCn1cnc2c(=O)[nH]c(N)nc21)Oc1cccc2ccccc12 (stereo partly drawn) [Cf 2629, acyclovir-[1-naphthyl(n-propoxy-L-alaninyl)]phosphate]	22	3.2	7.4	10	< 0.1	1.5	0.4	EC50 ([1]; read-out: EC50 HIV-1(IIIB), CEM cell cultures): 3.4 µM
C[C@H](NP(=O)(OCCOCn1cnc2c(=O)[nH]c(N)nc21)Oc1ccccc1)C(=O)OCc1ccccc1 (stereo partly drawn) [Cf 2648, acyclovir-[1-phenyl-(benzoxy-L-alaninyl)]phosphate]	33	3.2	8.8	8	< 0.1	0.55	<0.1	–
Nc1nc2c(ncn2COCCOP(=O)(N[C@@H](Cc2ccccc2)C(=O)OCc2ccccc2)Oc2ccccc2)c(=O)[nH]1 (stereo partly drawn) [Cf 2650, acyclovir-[1-phenyl-(benzoxy-L-phenylalaninyl)]phosphate]	42	24	21	16	< 0.1	3	1.5	–
Nc1nc2c(ncn2COCCOP(=O)(O)O)c(=O)[nH]1 [ACV monophosphate, reference compound]	–	–	–	–	–	–	–	EC50 [4, 10]: 100 µM; inhibition of HIV-1 (in words) [4]: inefficient
COC(=O)[C@H](C)NP(=O)(OCCOCn1cnc2c(=O)[nH]c(N)nc21)Oc1ccccc1 (stereo partly drawn) [Cf 1811, acyclovir-[1-phenyl-(methoxy-L-alaninyl)]phosphate]	67	16	26	15	< 0.1	0.5	0.1	–
COC(=O)[C@H](C)NP(=O)(OCCOCn1cnc2c(=O)[nH]c(N)nc21)Oc1cccc2ccccc12 (stereo partly drawn) [Cf 2649, acyclovir-[1-naphthyl(methoxy-L-alaninyl)]phosphate]	57	9.7	9.3	3	< 0.1	0.1	<0.1	inhibition at 5 µM ([4]; Human immunodeficiency virus 1, MT4, read-out: inhibition of replication of HIV-1): 99%; dose-dependency of HIV suppression (FIG. 2, in words) ([4]; MT4 cells, LAI.04, day 3 post-infection, p24 ELISA): suppression of HIV replication by the drug in dose-dependent manner; suppression of HIV-1 replication, time course (FIG. 1, in words) ([5]; human tonsillar tissue, 27 blocks, LAI.04, drug replenished every three days, p24 ELISA): efficient suppression of HIV replication
C[C@H](NP(=O)(OCCOCn1cnc2c(=O)[nH]c(N)nc21)Oc1cccc2ccccc12)C(=O)OCc1ccccc1 (stereo partly drawn) [Cf 2574, acyclovir-[1-naphthyl(benzoxy-L-alaninyl)]phosphate]	17	17.5	7.3	0.8	< 0.1	0.9	0.62	–
Nc1nc2c(ncn2COCCOP(=O)(O)OP(=O)(O)OP(=O)(O)O)c(=O)[nH]1 [ACV triphosphate, reference compound]	–	–	–	–	–	–	–	EC50 [4, 10]: 50 µM; inhibition of HIV-1 RT (in words) [6]: potent inhibitor
